Experimental data published in ChEMBL document CHEMBL1143642, “Preparation of 3-spirocyclic indolin-2-ones as ligands for the ORL-1 receptor” (Bioorg Med Chem Lett, 2005).

Key:
Format in all cases: cell-based
[1] = target: Delta-type opioid receptor (Homo sapiens, UniProt P41143); test: Binding affinity against human opioid receptor delta 1 expressed in HEK293 cells using [3H]DDPDE radioligand
[2] = target: T1, Nociceptin receptor (Homo sapiens, UniProt P41146); test: Binding affinity determined by the ability to compete with [125I]-Tyr14- nociceptin from binding to human opiate receptor-like 1 expressed in HEK293 cells
T1 sequence (P41146 whole entry): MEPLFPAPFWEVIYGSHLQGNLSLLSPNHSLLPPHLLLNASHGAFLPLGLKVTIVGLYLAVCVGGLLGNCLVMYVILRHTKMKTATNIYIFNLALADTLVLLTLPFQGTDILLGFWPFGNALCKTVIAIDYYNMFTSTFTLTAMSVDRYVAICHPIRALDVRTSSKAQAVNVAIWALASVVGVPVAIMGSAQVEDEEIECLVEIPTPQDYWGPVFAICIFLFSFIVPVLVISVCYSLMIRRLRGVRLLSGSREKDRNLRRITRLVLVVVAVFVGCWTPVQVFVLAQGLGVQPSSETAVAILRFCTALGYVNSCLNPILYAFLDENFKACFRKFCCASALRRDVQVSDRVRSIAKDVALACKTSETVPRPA

[3] = target: T1, Nociceptin receptor; test: Ability to inhibit calcium flux in HEK293 cells overexpresses human opiate receptor-like 1 in the presence of 100 nM nociceptin
[4] = target: Mu-type opioid receptor (Homo sapiens, UniProt P35372); test: Binding affinity against human opioid receptor mu 1 expressed in HEK293 cells using [3H]DAMGO radioligand
Mu-type opioid receptor, sequence (P35372 whole entry): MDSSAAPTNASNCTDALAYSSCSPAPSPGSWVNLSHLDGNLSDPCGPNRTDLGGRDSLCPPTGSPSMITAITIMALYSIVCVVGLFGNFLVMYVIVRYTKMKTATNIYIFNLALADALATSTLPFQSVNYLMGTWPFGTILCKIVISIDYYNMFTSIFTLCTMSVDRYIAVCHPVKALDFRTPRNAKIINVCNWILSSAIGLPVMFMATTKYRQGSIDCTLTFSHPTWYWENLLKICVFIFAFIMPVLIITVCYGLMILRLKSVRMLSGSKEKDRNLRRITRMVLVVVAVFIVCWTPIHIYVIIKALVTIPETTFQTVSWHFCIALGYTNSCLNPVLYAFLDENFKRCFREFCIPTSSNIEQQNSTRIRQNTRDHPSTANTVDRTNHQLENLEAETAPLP

[5] = target: Kappa-type opioid receptor (Homo sapiens, UniProt P41145); test: Binding affinity against human opioid receptor kappa 1 expressed in HEK293 cells using 3H-U69,593 radioligand
Kappa-type opioid receptor, sequence (P41145 whole entry): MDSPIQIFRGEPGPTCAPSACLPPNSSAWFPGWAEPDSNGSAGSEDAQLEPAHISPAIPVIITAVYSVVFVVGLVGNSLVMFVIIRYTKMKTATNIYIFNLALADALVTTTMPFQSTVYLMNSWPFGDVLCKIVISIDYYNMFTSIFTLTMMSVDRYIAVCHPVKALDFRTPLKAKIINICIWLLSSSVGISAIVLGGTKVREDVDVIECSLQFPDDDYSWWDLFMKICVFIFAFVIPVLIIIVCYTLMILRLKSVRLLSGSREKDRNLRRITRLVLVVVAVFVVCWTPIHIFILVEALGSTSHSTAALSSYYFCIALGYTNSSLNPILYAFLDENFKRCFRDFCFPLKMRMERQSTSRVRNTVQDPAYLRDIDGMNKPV

Delta-type opioid receptor, sequence (P41143 whole entry): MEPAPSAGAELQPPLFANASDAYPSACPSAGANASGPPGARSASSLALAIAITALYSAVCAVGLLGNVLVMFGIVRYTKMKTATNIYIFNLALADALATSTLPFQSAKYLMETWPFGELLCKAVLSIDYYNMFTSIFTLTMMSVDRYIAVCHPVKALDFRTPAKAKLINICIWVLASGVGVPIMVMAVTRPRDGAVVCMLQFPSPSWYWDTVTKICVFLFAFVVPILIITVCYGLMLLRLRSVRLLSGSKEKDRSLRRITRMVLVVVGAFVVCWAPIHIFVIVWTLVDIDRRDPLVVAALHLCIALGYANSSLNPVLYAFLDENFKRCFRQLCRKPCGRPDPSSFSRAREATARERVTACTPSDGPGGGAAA

SMILES	IC50 [1] [µM]	IC50 [2] [µM]	also measured
Cc1ccc2c(c1)C1(CCN(CC3CCCCCCC3)CC1)C(=O)N2C	9.4	–	–
COC(=O)CN1C(=O)C2(CCN(Cc3ccccc3-c3ccsc3)CC2)c2ccccc21	–	10	–
COC(=O)CN1C(=O)C2(CCN(C(=O)C3CCC(OC)CC3)CC2)c2ccccc21 (centres undefined)	–	> 10	–
O=C1N(CC2CO2)c2ccccc2C12CCN(CC1CCCCCCC1)CC2 (centres undefined)	> 10	–	–
COC(=O)CN1C(=O)C2(CCN(c3ccc4c5c(cccc35)CC4)CC2)c2ccccc21	–	0.35	–
COc1ccc2c(c1)N(C)C(=O)C21CCN(CC2CCCCCCC2)CC1	> 10	–	–
O=C1Nc2ccccc2C12CCN(CC1CCCCCCC1)CC2	> 10	–	inhibition [3]: 45%
CN1C(=O)C2(CCN(CC3CCCCCCC3)CC2)c2ccccc21	> 10	–	–
CC(C)c1ccc2c(c1)C1(CCN(CC3CCCCCCC3)CC1)C(=O)N2C	> 10	–	–
COC(=O)CN1C(=O)C2(CCN(Cc3ccc(-c4ccccc4)cc3)CC2)c2ccccc21	–	10	–
CC(=O)OCCN1C(=O)C2(CCN(CC3CCCCCCC3)CC2)c2ccccc21	> 10	–	–
O=C(O)CN1C(=O)C2(CCN(CC3CCCCCCC3)CC2)c2ccccc21	–	–	IC50 ([2]; hek293): < 10 µM
Cc1cccc2c1C1(CCN(CC3CCCCCCC3)CC1)C(=O)N2C	> 10	–	inhibition [3]: 81%
COC(=O)CN1C(=O)C2(CCN(C(=O)CCC(=O)c3ccccc3)CC2)c2ccccc21	–	> 10	–
COC(=O)CN1C(=O)C2(CCN(C(C)c3ccccc3)CC2)c2ccccc21 (centres undefined)	–	10	–
O=C1N(Cc2ccccc2)c2ccccc2C12CCN(CC1CCCCCCC1)CC2	> 10	–	–
COc1ccc2c(c1)N(CC1CC1)C(=O)C21CCN(CC2CCCCCCC2)CC1	> 10	> 10	IC50 [4]: 10 µM; IC50 [5]: > 10 µM
CCN(Cc1ccc(C)cc1)CC(O)CN1C(=O)C2(CCN(CC3CCCCCCC3)CC2)c2ccccc21 (centres undefined)	> 10	–	–
Cc1ccc2c(c1)N(C)C(=O)C21CCN(CC2CCCCCCC2)CC1	–	–	inhibition [3]: 48%
CCCCCCC(CCCC)CN1CCC2(CC1)C(=O)N(CC(=O)OC)c1ccccc12 (centres undefined)	–	10	–
CCN1C(=O)C2(CCN(CC3CCCCCCC3)CC2)c2ccc(OC)cc21	> 10	–	–
COC(=O)CN1C(=O)C2(CCN(CC3CCCCCCC3)CC2)c2ccccc21	> 10	–	–
CN1C(=O)C2(CCN(CC3CCCCCCC3)CC2)c2cc(F)ccc21	–	–	inhibition [3]: 66%
O=C1N(CC(O)CNCCN2CCOCC2)c2ccccc2C12CCN(CC1CCCCCCC1)CC2 (centres undefined)	> 10	–	–
